Assay results reported in PubChem BioAssay (NCI).
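Cells were grown in 96-well plates and exposed to each compound for 48 hours at five concentrations; endpoints were interpolated linearly between bracketing concentrations, or set to the highest concentration if not reached. Abbreviation: GI50, concentration required for 50% inhibition of growth. The concentration for full growth arrest is given as TGI.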

Legend:
Test in all cases: NCI anticancer screen, dose series, 48 h
786-0 renal = test system: 786-0 renal
A498 renal = test system: A498 renal
A549 NSCLC = test system: A549 NSCLC
ACHN renal = test system: ACHN renal
BT-549 breast = test system: BT-549 breast
CAKI-1 renal = test system: CAKI-1 renal
CCRF-CEM leukemia = test system: CCRF-CEM leukemia
COLO 205 colon = test system: COLO 205 colon
DU-145 prostate = test system: DU-145 prostate
HCC-2998 colon = test system: HCC-2998 colon
HCT-116 colon = test system: HCT-116 colon
HCT-15 colon = test system: HCT-15 colon
HL-60(TB) leukemia = test system: HL-60(TB) leukemia
HOP-62 NSCLC = test system: HOP-62 NSCLC
HOP-92 NSCLC = test system: HOP-92 NSCLC
HS 578T breast = test system: HS 578T breast
HT29 colon = test system: HT29 colon
IGROV1 ovarian = test system: IGROV1 ovarian
K-562 leukemia = test system: K-562 leukemia
KM12 colon = test system: KM12 colon
LOX IMVI melanoma = test system: LOX IMVI melanoma
M14 melanoma = test system: M14 melanoma
MALME-3M melanoma = test system: MALME-3M melanoma
MCF7 breast = test system: MCF7 breast
MDA-MB-231 breast = test system: MDA-MB-231 breast
MDA-MB-435 = test system: MDA-MB-435
MOLT-4 leukemia = test system: MOLT-4 leukemia
NCI-H226 lung = test system: NCI-H226 lung
NCI-H23 lung = test system: NCI-H23 lung
NCI-H460 lung = test system: NCI-H460 lung
NCI-H522 lung = test system: NCI-H522 lung
OVCAR-3 ovarian = test system: OVCAR-3 ovarian
OVCAR-4 ovarian = test system: OVCAR-4 ovarian
OVCAR-5 ovarian = test system: OVCAR-5 ovarian
OVCAR-8 ovarian = test system: OVCAR-8 ovarian
PC-3 prostate = test system: PC-3 prostate
RPMI-8226 leukemia = test system: RPMI-8226 leukemia
RXF 393 renal = test system: RXF 393 renal
SF-268 CNS = test system: SF-268 CNS
SF-295 CNS = test system: SF-295 CNS
SF-539 CNS = test system: SF-539 CNS
SK-MEL-28 melanoma = test system: SK-MEL-28 melanoma
SK-MEL-5 melanoma = test system: SK-MEL-5 melanoma
SK-OV-3 ovarian = test system: SK-OV-3 ovarian
SN12C renal = test system: SN12C renal
SR leukemia = test system: SR leukemia
SW-620 colon = test system: SW-620 colon
T-47D breast = test system: T-47D breast
TK-10 renal = test system: TK-10 renal
U251 CNS = test system: U251 CNS
UACC-62 melanoma = test system: UACC-62 melanoma
UO-31 renal = test system: UO-31 renal
EKVX NSCLC = test system: EKVX NSCLC
NCI/ADR-RES ovarian = test system: NCI/ADR-RES ovarian
SK-MEL-2 melanoma = test system: SK-MEL-2 melanoma
SNB-19 CNS = test system: SNB-19 CNS
SNB-75 CNS = test system: SNB-75 CNS
UACC-257 melanoma = test system: UACC-257 melanoma

`COc1ccc(N(Cc2cc(OC)c(OC)c(OC)c2)C2OC(=O)c3ccccc32)cc1` (stereo unspecified) showed a GI50 (786-0 renal) of 701 nM, a TGI (786-0 renal) greater than 100 µM and a GI50 (A498 renal) of 249 nM. The TGI (A498 renal) was 1610 nM, the GI50 (A549 NSCLC) was 626 nM and the TGI (A549 NSCLC) was greater than 100 µM. It also gave a GI50 (ACHN renal) of 690 nM, a TGI (ACHN renal) greater than 100 µM and a GI50 (BT-549 breast) of 428 nM. The TGI (BT-549 breast) was greater than 100 µM, the GI50 (CAKI-1 renal) was 532 nM and the TGI (CAKI-1 renal) was greater than 100 µM. For the same compound, the GI50 (CCRF-CEM leukemia) was 435 nM, the TGI (CCRF-CEM leukemia) was greater than 100 µM and the GI50 (COLO 205 colon) was 390 nM. The TGI (COLO 205 colon) was 5.77 µM, the GI50 (DU-145 prostate) was 886 nM and the TGI (DU-145 prostate) was 54.3 µM. It also gave a GI50 (HCC-2998 colon) of 1570 nM, a TGI (HCC-2998 colon) greater than 28.5 µM and a GI50 (HCT-116 colon) of 426 nM. It also gave a TGI (HCT-116 colon) greater than 100 µM, a GI50 (HCT-15 colon) of 424 nM and a TGI (HCT-15 colon) greater than 100 µM. The GI50 (HL-60(TB) leukemia) was 308 nM, the TGI (HL-60(TB) leukemia) was 2250 nM and the GI50 (HOP-62 NSCLC) was 783 nM. It also gave a TGI (HOP-62 NSCLC) greater than 100 µM, a GI50 (HOP-92 NSCLC) of 349 nM and a TGI (HOP-92 NSCLC) greater than 100 µM. The GI50 (HS 578T breast) was 373 nM, the TGI (HS 578T breast) was greater than 100 µM and the GI50 (HT29 colon) was 365 nM. For the same compound, the TGI (HT29 colon) was greater than 43.1 µM, the GI50 (IGROV1 ovarian) was 1070 nM and the TGI (IGROV1 ovarian) was greater than 100 µM. The GI50 (K-562 leukemia) was 346 nM, the TGI (K-562 leukemia) was greater than 100 µM and the GI50 (KM12 colon) was 434 nM. For the same compound, the TGI (KM12 colon) was greater than 36.7 µM, the GI50 (LOX IMVI melanoma) was 712 nM and the TGI (LOX IMVI melanoma) was greater than 100 µM. The GI50 (M14 melanoma) was 390 nM, the TGI (M14 melanoma) was greater than 100 µM and the GI50 (MALME-3M melanoma) was 511 nM. The TGI (MALME-3M melanoma) was greater than 100 µM, the GI50 (MCF7 breast) was 386 nM and the TGI (MCF7 breast) was greater than 100 µM. The GI50 (MDA-MB-231 breast) was 1210 nM, the TGI (MDA-MB-231 breast) was greater than 25.4 µM and the GI50 (MDA-MB-435) was 165 nM. It also gave a TGI (MDA-MB-435) of 433 nM, a GI50 (MOLT-4 leukemia) of 661 nM and a TGI (MOLT-4 leukemia) greater than 100 µM. For the same compound, the GI50 (NCI-H226 lung) was 21.8 µM, the TGI (NCI-H226 lung) was greater than 100 µM and the GI50 (NCI-H23 lung) was 1150 nM. It also gave a TGI (NCI-H23 lung) greater than 100 µM, a GI50 (NCI-H460 lung) of 394 nM and a TGI (NCI-H460 lung) greater than 60.2 µM. It also gave a GI50 (NCI-H522 lung) of 286 nM, a TGI (NCI-H522 lung) of 3.11 µM and a GI50 (OVCAR-3 ovarian) of 368 nM. It also gave a TGI (OVCAR-3 ovarian) of 1980 nM, a GI50 (OVCAR-4 ovarian) of 5.95 µM and a TGI (OVCAR-4 ovarian) greater than 100 µM. For the same compound, the GI50 (OVCAR-5 ovarian) was 3.53 µM, the TGI (OVCAR-5 ovarian) was greater than 100 µM and the GI50 (OVCAR-8 ovarian) was 779 nM. It also gave a TGI (OVCAR-8 ovarian) greater than 100 µM, a GI50 (PC-3 prostate) of 666 nM and a TGI (PC-3 prostate) greater than 100 µM. The GI50 (RPMI-8226 leukemia) was 539 nM, the TGI (RPMI-8226 leukemia) was greater than 100 µM and the GI50 (RXF 393 renal) was 612 nM. For the same compound, the TGI (RXF 393 renal) was greater than 100 µM, the GI50 (SF-268 CNS) was 882 nM and the TGI (SF-268 CNS) was greater than 100 µM. The GI50 (SF-295 CNS) was 534 nM, the TGI (SF-295 CNS) was greater than 100 µM and the GI50 (SF-539 CNS) was 317 nM. The TGI (SF-539 CNS) was 1240 nM, the TGI (SK-MEL-28 melanoma) was greater than 100 µM and the GI50 (SK-MEL-5 melanoma) was 474 nM. The TGI (SK-MEL-5 melanoma) was 53.1 µM, the GI50 (SK-OV-3 ovarian) was 1230 nM and the TGI (SK-OV-3 ovarian) was greater than 100 µM. The GI50 (SN12C renal) was 703 nM, the TGI (SN12C renal) was greater than 100 µM and the GI50 (SR leukemia) was 456 nM. The TGI (SR leukemia) was greater than 100 µM, the GI50 (SW-620 colon) was 374 nM and the TGI (SW-620 colon) was greater than 100 µM. The GI50 (T-47D breast) was 78 µM, the TGI (T-47D breast) was greater than 100 µM and the TGI (TK-10 renal) was greater than 100 µM. The GI50 (U251 CNS) was 385 nM, the TGI (U251 CNS) was greater than 34.7 µM and the GI50 (UACC-62 melanoma) was 498 nM. It also gave a TGI (UACC-62 melanoma) greater than 100 µM, a GI50 (UO-31 renal) of 2300 nM and a TGI (UO-31 renal) greater than 100 µM.

`COc1ccc(NC(=O)C2=C(SC)C(=O)N=C2N)cc1` showed a TGI (786-0 renal) greater than 100 µM, a TGI (A498 renal) greater than 100000 nM and a TGI (ACHN renal) greater than 100 µM. The TGI (BT-549 breast) was greater than 100 µM, the TGI (CAKI-1 renal) was greater than 100 µM and the TGI (CCRF-CEM leukemia) was greater than 100 µM. For the same compound, the TGI (COLO 205 colon) was greater than 100 µM, the TGI (DU-145 prostate) was greater than 100 µM and the TGI (EKVX NSCLC) was greater than 100 µM. The TGI (HCC-2998 colon) was greater than 100 µM, the TGI (HCT-116 colon) was greater than 100 µM and the TGI (HCT-15 colon) was greater than 100 µM. For the same compound, the TGI (HL-60(TB) leukemia) was greater than 100000 nM, the TGI (HOP-62 NSCLC) was greater than 100 µM and the TGI (HOP-92 NSCLC) was greater than 100 µM. For the same compound, the TGI (HS 578T breast) was greater than 100 µM, the TGI (HT29 colon) was greater than 100 µM and the TGI (IGROV1 ovarian) was greater than 100 µM. The TGI (K-562 leukemia) was greater than 100 µM, the TGI (KM12 colon) was greater than 100 µM and the TGI (LOX IMVI melanoma) was greater than 100 µM. The TGI (MDA-MB-231 breast) was greater than 100 µM, the TGI (MDA-MB-435) was greater than 100000 nM and the TGI (MOLT-4 leukemia) was greater than 100 µM. For the same compound, the TGI (NCI-H226 lung) was greater than 100 µM, the TGI (NCI-H23 lung) was greater than 100 µM and the TGI (NCI-H460 lung) was greater than 100 µM. The TGI (NCI/ADR-RES ovarian) was greater than 100 µM, the TGI (OVCAR-4 ovarian) was greater than 100 µM and the TGI (OVCAR-8 ovarian) was greater than 100 µM. For the same compound, the TGI (PC-3 prostate) was greater than 100 µM, the TGI (RPMI-8226 leukemia) was greater than 100 µM and the TGI (RXF 393 renal) was greater than 100 µM. The TGI (SF-268 CNS) was greater than 100 µM, the TGI (SF-295 CNS) was greater than 100 µM and the TGI (SK-MEL-2 melanoma) was greater than 100 µM. For the same compound, the TGI (SK-MEL-28 melanoma) was greater than 100 µM, the TGI (SK-MEL-5 melanoma) was greater than 100 µM and the TGI (SK-OV-3 ovarian) was greater than 100 µM. It also gave a TGI (SNB-19 CNS) greater than 100 µM, a TGI (SNB-75 CNS) greater than 100 µM and a TGI (SR leukemia) greater than 100 µM. It also gave a TGI (SW-620 colon) greater than 100 µM, a TGI (T-47D breast) greater than 100 µM and a TGI (TK-10 renal) greater than 100 µM. For the same compound, the TGI (U251 CNS) was greater than 100 µM, the TGI (UACC-257 melanoma) was greater than 100 µM and the TGI (UACC-62 melanoma) was greater than 100 µM. The TGI (UO-31 renal) was greater than 100 µM.
